Patent US11266755B2, “Development and application of tumor diagnostic radioactive probe targeting folic acid receptor” (Kyungpook National University Industry-Academic Cooperation …, priority 2017, dated 2022)

System: MDA-MB-231/Luc+
Experiment: PET imaging in breast cancer bone metastasis model
Type: in vivo
Settings: PET 1 hour after injection into the tail vein, same mouse, FIG. 13B
Description: For the breast cancer metastasis model, MDA-MB-231/Luc+ was used, and after 10 days of direct injection of 1×10^5 cells into the left ventricle, IVIS-assisted luminescence images confirmed that bone metastasis occurred to the femoral bones. After verifying the establishment of bone metastasis model of breast cancer, further experiments were carried out (FIG. 12A).

## OC[C@H]1O[C@@H](O)[C@H]([18F])[C@@H](O)[C@@H]1O [FDG]
  PET detection of breast cancer bone metastasis: difficult to identify the tumor site clearly due to high background uptake
